Experimental data taken from paper PMC7561186, “Rational design of balanced dual-targeting antibiotics with limited resistance” (PLoS Biology, 2020).
Several values for one entry are separate records, joined by “and”; a condition that tells them apart may be missing. Identical values can stand only once. Like-named read-outs stand apart in the source and are kept apart here.

How the values were obtained:
[1] = test system: S. aureus Mu50 (VISA) ATCC 700699; assay: Neutropenic thigh infection model; assay type: in vivo, CD-1 mice; conditions: for Log CFU/g thigh: neutropenic thigh infection, Staphylococcus aureus Mu50 ATCC 700699 (VISA), individual animals
Protocol: Neutropenic mouse thigh infection experiments were performed on female CD-1 mice (Charles River Laboratories, USA). To induce neutropenia, mice received 2 doses of cyclophosphamide on days -4 and -1 with 150 mg/kg, and 100 mg/kg delivered intraperitoneally (IP), respectively. The inoculum of the testing strain, S. aureus Mu50 (VISA) ATCC 700699, was prepared from overnight agar plate cultures. To prepare bacterial inoculums, a portion of the plate was resuspended in sterile saline and adjusted to an OD of 0.12 at 625 nm. Next, the resulted bacterial suspension was further diluted to reach an infecting inoculum of 6.0×10^5 CFU per each mouse. Mice were inoculated with 100 μL of the prepared bacterial suspension via intramuscular injection into the right rear thigh. Plate counts of the inoculum were also performed in each case to confirm inoculum concentration and the actual inoculum size was 6.9×10^5 CFU/mouse. […] Test agent was then dosed via IV administration at 2, 8, 14, and 20 hours postinfection. Beginning at 2 hours, postinfection mice were dosed with either test article or positive control antibiotic. Mice receiving test agents were dosed intravenously at 10 mL/kg. Linezolid was delivered as a subcutaneous dose. Four animals were dosed per group. One group of 4 mice were euthanized at initiation of therapy (T = 2 hours) and CFUs determined. All remaining mice were euthanized at 26 hours postinfection. At termination, thighs were aseptically excised, weighed, and homogenized to a uniform consistency in 2 mL of sterile saline. The homogenate was serially diluted and plated on bacterial growth media. The CFUs were enumerated after overnight incubation.

[2] = test system: S. aureus ATCC 700699 (VISA); assay: microbe, parasite or virus in culture; assay type: cell-based; conditions: for MIC: Staphylococcus aureus, read-out: MIC in adapted strains; for increase in MIC in adapted strains compared with the wild-type strain: lineages adapted to the same compound, S. aureus VISA
Protocol: Adaptive laboratory evolution experiments followed an established protocol for automated laboratory evolution and aimed to maximize the drug-resistance increment during a fixed time period. […] Experiments were conducted in 96-well plates, in MHBII medium, by utilizing a checkerboard layout to minimize and monitor cross-contamination. These 96-well deep-well plates (0.5 mL, polypropylene, V-bottom) were covered with sandwich covers (Enzyscreen BV) to ensure an optimal oxygen exchange rate and limit evaporation and were shaken at 150 rpm, 37 °C. […] Following cell transfer, each culture was allowed to grow for 48 hours. At each transfer, cell growth was monitored by measuring the OD600 in a BioTek Synergy 2 plate reader. […] Accordingly, only 1 of the 4 populations was retained for each independently evolving strain. This protocol was designed to avoid population extinction and to ensure that populations with the highest level of resistance are propagated further during adaptive evolution. […] Adaptation of populations was terminated after 20 transfers, i.e., 40 days. Following adaptation, cells from each final population were spread onto MHBII agar plates, and individual colonies were isolated. Next, one colony from each adapted line were subjected to capillary sequencing of gyrB and parE to assess their genotype.

[3] = test system: S. aureus VISA ATCC 700699 GyrB R144I and GyrB I175T; assay: Second-step frequency-of-resistance assay in GyrB single mutants; assay type: cell-based
Protocol: To determine the spontaneous frequency-of-resistance, approximately 10^10 cells from stationary-phase MHBII broth cultures of S. aureus ATCC 700699 and S. aureus ATCC 43300 were plated to antibiotic-containing plates according to a standard protocol to determine frequency-of-resistance. Prior to plating, bacteria were grown overnight in MHBII medium at 37 °C, 250 rpm, collected by centrifugation, and washed once in equal volumes of MHBII broth. From this concentrated cell suspension (250 μL), approximately 10^10 cells were then plated to each MHBII agarose plates. Using agarose instead of agar reduced drug-adsorption and improved the performance of the assay. […] All experiments were performed in at least 3 replicates. Plates were grown at 37 °C for 72 hours. Total CFUs were determined simultaneously in each experiment by plating appropriate dilutions to antibiotic-free MHBII agar plates. Finally, resistance frequencies for each strain were calculated by dividing the number of colonies formed after a 72-hour incubation at 37 °C by the initial viable cell count.

[4] = test system: MCF-7 cells; conditions: LDH assay
Protocol: Cytotoxicity of compounds on HepG2 and MCF-7 mammalian cell lines was determined by using a standard LDH assay. Briefly, HepG2 and MCF-7 cells were cultured in Eagle’s MEM medium (from Gibco) supplemented with 2 mM L-glutamine (Sigma), 100 U/mL penicillin (Sigma), and 100 μg/mL streptomycin (Sigma), and 10% FBS (Gibco) at 37 °C and under 5% CO2. Next, LDH assays were performed according to manufacturer instructions (Thermo Fisher Scientific, Massachusetts, USA). By using a CyQUANT LDH Cytotoxicity Assay Kit. Firstly, the cells were seeded in 96-well microtiter plates at 10^5 cells/mL (100 μL/well) and allowed to attach overnight. […] Lysis buffer (10 μL, Thermo Fisher Scientific) was then added to the maximal LDH activity control wells and incubated additional 45 minutes. The cell culture supernatant (50 μL) was then transferred to a new 96-well plate and mixed with 50 μL of the reaction mixture. After 30 minutes on room temperature, reactions were stopped with 50 μL of the Stop solution. Absorbance (490 nm and 680 nm) was measured with the automatic microplate reader Synergy 4 Hybrid Microplate Reader (BioTek, VT, USA). All experiments were performed in triplicates and repeated 3 times. Statistical significance (P < 0.05) was calculated with 2-tailed Welch’s t-test between treated groups and DMSO. The percentage of cytotoxicity was determined according to the following equation: %Cytotoxicity=(CompoundtreatedLDHactivity-SpontaneousLDHactivity/MaximumLDHactivity-SpontaneousLDHactivity)*100

[5] = test system: multidrug-resistant Staphylococcus, Enterococcus, and Streptococcus isolates; assay: MIC against multidrug-resistant gram-positive isolates (summary); assay type: cell-based; conditions: read-out: MIC values against all studied multidrug-resistant Staphylococcus, Enterococcus, and Streptococcus isolates
Protocol: (§1) MICs were determined using a standard serial broth microdilution technique according to the CLSI guidelines. Briefly, bacterial strains were inoculated onto MHBII agar plates and were grown overnight at 37 °C. Next, 3 individual colonies from each strain were inoculated into 1 mL MHBII medium and propagated at 37 °C, 250 rpm overnight. In the cases of Enterococcus and Streptococcus sp., cells were plated to BHI agar plates, and BHI broth was used to determine MICs. […] Following dilutions, each well was seeded with 5×10^4 bacterial cells. All measurements were performed in 3 parallel replicates and to avoid possible edge effects in microwell plates, side rows (A and H) were filled with sterile medium. Following inoculations, plates were covered with lids and wrapped in polyethylene plastic bags to minimize evaporation but allow for O2 transfer. Plates were incubated at 37 °C under continuous shaking at 150 rpm for 18 hours. After incubation, OD600 of each well was measured using a BioTek Synergy 2 microplate reader.

[6] = test system: S. aureus VISA ATCC 700699 GyrB / ParE mutants; assay: MIC of spontaneous resistant mutants (single-step and second-step); assay type: cell-based; conditions: for MIC: Staphylococcus aureus
Protocol: as §1

[7] = second-step mutant, selection ULD1 at 16× MIC, GyrB I175T, ParE A120D
[8] = second-step mutant, selection ULD1 at 16× MIC, GyrB I175T, ParE F95Y
[9] = second-step mutant, selection ULD1 at 16× MIC, GyrB I175T, ParE T166A
[10] = second-step mutant, selection ULD1 at 16× MIC, GyrB I175T, ParE T166I
[11] = second-step mutant, selection ULD1 at 16× MIC, GyrB R144I, ParE A120D
[12] = second-step mutant, selection ULD1 at 16× MIC, GyrB R144I, ParE F95Y
[13] = second-step mutant, selection ULD1 at 16× MIC, GyrB R144I, ParE R136G
[14] = second-step mutant, selection ULD2 at 8× MIC, GyrB I175T, ParE A120D
[15] = second-step mutant, selection ULD2 at 12× MIC, GyrB R144I, ParE A120D
[16] = second-step mutant, selection ULD2 at 12× MIC, GyrB R144I, ParE F95Y
[17] = second-step mutant, selection ULD2 at 12× MIC, GyrB R144I, ParE R136G

In the case of `CC(=O)NC[C@H]1CN(c2ccc(N3CCOCC3)c(F)c2)C(=O)O1` [Linezolid], the “Log CFU/g thigh” value ([1]; 50 mg/kg) is reported as 5.65 Log CFU/g thigh and 6.12 Log CFU/g thigh and 4.95 Log CFU/g thigh.
With `Cc1[nH]c(C(=O)Nc2nc3ccc(C(=O)O)cc3s2)c(Cl)c1Cl` [ULD1] the MIC [2] was 1 µg/mL, the “increase in MIC in adapted strains compared with the wild-type strain” value [2] was 25 fold and the Resistant colony number ([3]; VISA GyrB I175T, 4xMIC) was “lawn”. The Resistant colony number ([3]; VISA GyrB I175T, 8xMIC) was “lawn”, the Resistant colony number ([3]; VISA GyrB R144I, 4xMIC) was “lawn” and the Frequency-of-Resistance ([3]; VISA GyrB R144I, 12xMIC) was 4.57E-08. It also gave a Resistant colony number ([3]; VISA GyrB R144I, 12xMIC) of 1288, a Frequency-of-Resistance ([3]; VISA GyrB R144I, 16xMIC) of 1.61E-08 and a Resistant colony number ([3]; VISA GyrB R144I, 16xMIC) of 454. The “Max. % inhibition at 100 µM” value [4] was “Max. % inhibition at 100 µM: 0%”, the MIC [5] was < 2 µg/mL and the MIC ([6]; VISA GyrB I175T) was 0.198 µg/mL. The MIC ([6]; VISA GyrB R144G) was 0.132 µg/mL, the MIC ([6]; VISA GyrB R144I) was 0.198 µg/mL and the MIC ([6]; VISA wt, read-out: MIC) was 0.04 µg/mL. It also gave an MIC [6, 7] of 4 µg/mL, an MIC [6, 8] of 4 µg/mL and an MIC ([6]; second-step mutant, selection ULD1 at 16× MIC, GyrB I175T, ParE R136G) of 4 µg/mL. It also gave an MIC [6, 9] of 2 µg/mL, an MIC [6, 10] of 2 µg/mL and an MIC [6, 11] of 2 µg/mL. For the same molecule, the MIC [6, 12] was 2 µg/mL, the MIC [6, 13] was 2 µg/mL and the MIC [6, 14] was 4 µg/mL. For the same molecule, the MIC [6, 15] was 2 µg/mL, the MIC [6, 16] was 2 µg/mL and the MIC [6, 17] was 4 µg/mL. For the same molecule, the “antibacterial activity after intravenous administration” value ([1]; neutropenic murine thigh infection, S. aureus VISA, comparable to linezolid, in words) was “potent antibacterial activity”, the “Log CFU/g thigh” value ([1]; 10 mg/kg) was 7.54 Log CFU/g thigh and 7.91 Log CFU/g thigh and 8.09 Log CFU/g thigh and 8.46 Log CFU/g thigh and the “Log CFU/g thigh” value ([1]; 25 mg/kg) was 6.73 Log CFU/g thigh and 6.88 Log CFU/g thigh and 7.28 Log CFU/g thigh and 6.95 Log CFU/g thigh. For the same molecule, the “Log CFU/g thigh” value ([1]; 50 mg/kg) was 5.41 Log CFU/g thigh and 5.69 Log CFU/g thigh.
`Cc1[nH]c(C(=O)Nc2nc3c(OCc4ccccc4)cc(C(=O)O)cc3s2)c(Cl)c1Cl` [ULD2] was tested, and the MIC [2] was 0.5 µg/mL, the “increase in MIC in adapted strains compared with the wild-type strain” value [2] was 25 fold and the Resistant colony number ([3]; VISA GyrB I175T, 4xMIC) was “lawn”. The Resistant colony number ([3]; VISA GyrB R144I, 4xMIC) was “lawn”, the Resistant colony number ([3]; VISA GyrB R144I, 8xMIC) was “lawn” and the Frequency-of-Resistance ([3]; VISA GyrB R144I, 12xMIC) was 4.65E-08. For the same molecule, the Resistant colony number ([3]; VISA GyrB R144I, 12xMIC) was 1312, the Frequency-of-Resistance ([3]; VISA GyrB R144I, 16xMIC) was 3.55E-11 and the Resistant colony number ([3]; VISA GyrB R144I, 16xMIC) was 1. For the same molecule, the “Max. % inhibition at 100 µM” value [4] was “Max. % inhibition at 100 µM: 8.43%”, the MIC [5] was < 2 µg/mL and the MIC ([6]; VISA GyrB I175T) was 0.088 µg/mL. The MIC ([6]; VISA GyrB R144G) was 0.058 µg/mL, the MIC ([6]; VISA GyrB R144I) was 0.058 µg/mL and the MIC ([6]; VISA wt, read-out: MIC) was 0.02 µg/mL. The MIC [6, 7] was 0.25 µg/mL, the MIC [6, 8] was 0.25 µg/mL and the MIC [6, 9] was 0.125 µg/mL. It also gave an MIC [6, 10] of 0.25 µg/mL, an MIC [6, 11] of 0.25 µg/mL and an MIC [6, 12] of 0.125 µg/mL. The MIC [6, 13] was 0.25 µg/mL, the MIC ([6]; second-step mutant, selection ULD1 at 16× MIC, GyrB R144I, ParE R136L) was 0.125 µg/mL and the MIC [6, 14] was 1 µg/mL. For the same molecule, the MIC [6, 15] was 0.125 µg/mL, the MIC [6, 16] was 0.25 µg/mL and the MIC [6, 17] was 0.25 µg/mL. The “concentration inhibiting all isolated double mutants and laboratory evolved strains” value ([6]; {}) was ≤ 1 µg/mL and the “concentration inhibiting all isolated second-step resistant mutants” value ([6]; {}) was ≤ 1 µg/mL.
